Data: patent US10857085B2, “Preparations comprising carnosines” (Symrise AG, priority 2015, dated 2020)

Assays:
human fibroblasts [1] = test: DNA content of human fibroblasts (Desaulniers method); assay type: cell-based; conditions: 0.001 % w/v; for DNA after 3 d: compared to blank sample = 100, after 3 d; for DNA after 6 d: compared to blank sample = 100, after 6 d
Source text: (§1) The enzyme glucose-6-phosphate dehydrogenase (G6PDH) catalyzes the first step of the so-called “pentose pathway”, in which an important DNA component, namely deoxyribose, is formed. Glucose 6-phosphate (G6P) is thereby converted into 6-phosphogluconate (6PG) by means of G6PDH. At the same time, the coenzyme NADP required thereby is reduced to NADPH2, which in turn is able to catalyze a large number of other biological reactions such as, for example, the recycling of glutathione or lipid synthesis. Reduced glutathione protects many enzymes which have SH groups and cells against oxidative stress, such as, for example, the action of UV. The G6PDH content is thus an important parameter for cell protection and skin renewal. G6PDH activity was determined in vitro on human fibroblasts by the enzymatic method of Okada, while the DNA content was determined by the Desaulniers method. The results of 3 series of measurements with triple determination are given in %-rel. compared to a blank sample.

[2] = system: glucose-6-phosphate dehydrogenase (G6PDH); test: G6PDH activity in vitro on human fibroblasts (enzymatic method of Okada); assay type: cell-based; conditions: 0.001 % w/v; for G6PDH after 3 d: compared to blank sample = 100, after 3 d; for G6PDH after 6 d: compared to blank sample = 100, after 6 d
Source text: as §1

[3] = system: human fibroblasts and human keratinocytes; test: Inhibition of apoptosis induced by growth factor deficiency (cell count, BrdU ELISA of cytoplasmic DNA fragments); assay type: cell-based; conditions: 0.001 % w/v, in comparison to the control = 100; for Content of DNA fragments: BrdU in cytoplasmic DNA fragments, based on a million cells
Source text: Apoptosis, unlike necrosis, is the natural purposive cell death of specific undesired or damaged cells. It is an active process of the cells (suicide on command). In the case of skin ageing especially, a deficiency of growth factors in the skin leads to induced apoptosis of the skin cells. In the cells affected by apoptosis, the nuclear DNA is degraded by the specific enzyme endonuclease and the DNA fragments are passed into the cytoplasm.
The ability of carnosines to prevent apoptosis induced by a deficiency of growth factors in human skin cells was studied. These tests were carried out in vitro on human fibroblasts and human keratinocytes. The human cells were cultivated in a nutrient medium (DMEM=Dulbecco minimum essential medium from Life Technologie Sarl) with 10% fetal calf serum (from Dutcher). Bromodeoxyuridine (BrdU) was added to the nutrient medium; it was incorporated into the DNA and later served for detection of the DNA fragments in the cytoplasm. After an incubation period of two days, the nutrient medium was replaced by nutrient medium (DMEM) without fetal calf serum. The active substance to be tested was added. For comparison, a cell sample without active substance to be tested was incubated.
After a further incubation period of one or two days at 37° C., the cells were recovered by trypsinization according to the method of Dunnebacke and Zitcer described in: Cell and tissue culture, Ed.: J. Paul, Churchill Livingstone, 1975, p. 226. After the trypsinization, the cells were centrifuged and counted. Then the content of BrdU in the DNA fragments from the cytoplasm was determined by means of the ELISA test (ELISA kit from Roche). The content of BrdU is a measure of the DNA fragments which have passed from the nucleus, the cell core, into the cytoplasm. The results were based on a million cells and given in percent in comparison to the control.

human fibroblasts [4] = test: Synthesis of dermal macromolecules (GAG) in collagen gel containing human fibroblasts; assay type: cell-based; conditions: 0.5% by weight FCS + 0.01% by weight substance; for Density, 14 days: relative density of collagen gel (0=clear or white, 1=black)
Source text: The dermis is composed of cells (fibroblasts and mast cells), tissue components (collagen and elastin) and so-called ground substances. These ground substances include, for example, glycosaminoglycan (GAG), hyaluronic acid, chondroitin sulfate, dermatan sulfate and glycoproteins. As a result of skin ageing, the intermolecular strength and elasticity of the dermis, and thus the tautness of the skin, is reduced. Likewise, the number of skin cells present, in particular fibroblasts, is reduced as the skin ages. The collagen fibers are fragmented over time, and the proportion of insoluble to soluble collagen increases. The fine dermal elastic fibers become coarse and are destroyed. The synthesis of GAG (glycosaminoglycan) is reduced. All these processes contribute to skin ageing and the manifestations thereof, such as wrinkles and lack of tautness of the skin.
The measuring method is based on staining macromolecules in a culture of human fibroblasts which, with type I collagen, forms a collagen gel or collagen lattice fibers. Certain regions of those fibers are quantified by means of staining reagents for the proportion of the mentioned macromolecules.
For that purpose, a suspension of human fibroblasts was mixed with a solution of type I collagen (1-2 mg/ml). This mixture was incubated in a defined nutrient medium (DMEM=Dulbecco minimum essential medium, Life Technologie Sarl) comprising 0.5 or 2% by weight fetal calf serum (FCS) for 14 days at 37° C. in a 5% CO2 atmosphere in Petri dishes (5 ml per dish) with the addition of different concentrations of the plant extracts to be tested.
The kinetics of the collagen gel […] was determined 2 to 3 times per week by measuring two perpendicular diameters on each collagen gel using a microscope with an image analysis system. The size of the area is shown in cm^2 in Table 8. After incubation for 14 days, the density of the collagen gel was determined by image analysis with a light source of visible light, by comparatively analyzing different gray stages. This is a relative determination of the density (0=clear or white and 1=black), which cannot be given a unit.
After an incubation period of 7 and 14 days, biopsies (tissue samples) were taken and histological sections of the collagen gel containing human fibroblasts were obtained. The synthesis of macromolecules was analyzed and quantified by the staining of glycosaminoglycan with PAS Alcian blue, for example from SIGMA, by the periodic acid-Schiff method (PAS) described in: Mowry R W, Anal. NY Adad. Sci. 106 Art 2, 402, 1963. The stimulation of the synthesis of macromolecules was evaluated in the immediate vicinity of fibroblasts. This zone is also referred to as the “perifibroblast area”.
The “perifibroblast” secretion, or the secretion of fibroblasts into the periphery, was quantified by an image analyzer by means of a microscope. Reactive structures in the “perifibroblast area” were detected, and the different gray stages were comparatively determined. The values of the gray stages were thereby subdivided from 0=white to 255=black. These parameters are directly proportional to the intensity of the synthesis of macromolecules and thus to the GAG content of the fibroblasts.
The results of the values of these parameters are shown in Table 3 below and are to be regarded directly as representative values for the synthesis activity of the fibroblasts. The content of GAGs is described as a relative value of the gray stage.

pancreas elastase = pancreas elastase (Sus scrofa, UniProt P00772); test: Inhibition of elastase activity (chromogenic labelled elastin substrate, OD 410 nm); assay type: biochemical; conditions: 0.3% by weight; 30 minutes at room temperature; relative to control = 0%
Procedure: Elastase is a protease which is secreted by the fibroblasts under inflammatory conditions and is jointly responsible for the degradation of dermal macromolecules, such as, for example, collagen and elastin, and thus for skin ageing.
In order to determine the effectiveness of the plant extract in inhibiting the release of elastase, pancreas elastase (a serine protease) was studied and, as substrate, elastin was labeled with a chromogenic synthetic substrate. The system was incubated with the active ingredients for 30 minutes at room temperature and then, after centrifugation, the optical density of the dye at 410 nm was determined. The amount of extracts used was 0.3% by weight. The results were given relative to a control as standard (=0%); al-antitrypsin was used as the standard.

type I collagen = test: Inhibition of the non-enzymatic glycation of collagen (Schiff's bases, fluorescence 430 nm); assay type: biochemical; conditions: type I collagen with glucose, 21 days at 45° C.; control with glucose 100, control without glucose 46
Source text: Glycation is a non-enzymatic reaction of glucose or other sugars with proteins to form glycoproteins. This reaction leads to unintentional changes in the collagen and elastin and thus to changes in the extracellular matrix. The function of the collagen and the extracellular matrix is disrupted. The prevention according to the invention of glycation leads to a reduction in the non-enzymatic change in collagen and elastin and thus to the prevention of a reduced function of the extracellular matrix.
The suspensions were then centrifuged and the content of Schiff's bases in the supernatant liquid was determined by fluorescence measurement at 430 nm. The results are again based on the control as standards (without extract and without glucose).

Chain of pancreas elastase (P00772 27-266): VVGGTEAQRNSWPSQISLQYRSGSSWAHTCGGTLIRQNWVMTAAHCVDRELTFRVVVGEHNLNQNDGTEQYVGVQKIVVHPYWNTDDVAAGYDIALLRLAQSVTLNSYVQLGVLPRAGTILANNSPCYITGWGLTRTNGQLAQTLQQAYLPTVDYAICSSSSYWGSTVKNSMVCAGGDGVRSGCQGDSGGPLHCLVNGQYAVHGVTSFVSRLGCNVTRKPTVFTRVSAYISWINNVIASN

## Cl.NCCC(=O)NCCc1cnc[nH]1 [Carnicine*HCl]
Human fibroblasts [1]
  DNA after 3 d: 106 %-rel.
  DNA after 6 d: 118 %-rel.
[2]
  G6PDH after 3 d: 104 %-rel.
  G6PDH after 6 d: 109 %-rel.
[3]
  Content of DNA fragments: 88%
[3]; medium without fetal calf serum
  Cell count: 118%
Human fibroblasts [4]; collagen gel area, 7 days
  Area, 7 days: 9.9 cm2
Human fibroblasts [4]; collagen gel area, 14 days
  Area, 14 days: 5.8 cm2
Human fibroblasts [4]; 14 days
  Density, 14 days: 0.25
Human fibroblasts [4]; relative value of the gray stage (0=white to 255=black), perifibroblast area, 7 days
  GAG content, 7 days: 11.8
Human fibroblasts [4]; relative value of the gray stage (0=white to 255=black), perifibroblast area, 14 days
  GAG content, 14 days: 13.3
Pancreas elastase
  Elastase inhibition, Inhibition [%]: 28%
Type I collagen
  Inhibition of the glycation of collagen, Inhibition [%]: 65%

## CCCCC(CC)COC(=O)C(C#N)=C(c1ccccc1)c1ccccc1 (stereo not drawn) [Octocrinyl, reference compound]
Human fibroblasts [1]
  DNA after 3 d: 95 %-rel.
  DNA after 6 d: 90 %-rel.
[2]
  G6PDH after 3 d: 89 %-rel.
  G6PDH after 6 d: 85 %-rel.

## NCCC(=O)N[C@@H](Cc1cnc[nH]1)C(=O)O [L-Carnosine]
Human fibroblasts [1]
  DNA after 6 d: 120 %-rel.
[3]
  Content of DNA fragments: 85%
Human fibroblasts [4]; 14 days
  Density, 14 days: 0.25
Type I collagen
  Inhibition of the glycation of collagen, Inhibition [%]: 68%
